Where two headings read alike, the source gives them in different places. Marks after values point to notes of the source that are not given here.
Columns and labels:
[1] = system: IFN-γ; assay: Circulating IFN-γ levels in blood serum of volunteers with acute respiratory infection; assay type: in vivo, human; conditions: for IFN-γ Mean value / IFN-γ Median: blood serum
Text: (§1) Increase of IFN-α levels was also observed in patients treated with Placebo, yet, this growth was less intensive than in FAV00A group (Table 22).

[2] = system: Human metapneumovirus; assay: Virus yield reduction assay, Human metapneumovirus; assay type: cell-based; conditions: MK2 cells, MOI 0.1, 8 days
[3] = system: Adenovirus 3; assay: Virus yield reduction assay, Adenovirus 3; assay type: cell-based; conditions: A549 cells, MOI 0.05, 4 days
[4] = system: Coxsackie virus A9; assay: Virus yield reduction assay, Coxsackie virus A9; assay type: cell-based; conditions: HFF, MOI 0.005, 3 days
[5] = system: Human cytomegalovirus Hi91; assay: Virus yield reduction assay, Human cytomegalovirus Hi91; assay type: cell-based; conditions: HFF, MOI 0.02, 5 days
[6] = system: Adenovirus 5; assay: Virus yield reduction assay, Adenovirus 5; assay type: cell-based; conditions: A549 cells, MOI 0.05, 4 days
[7] = system: IFN-α; assay: Circulating IFN-α levels in blood serum of volunteers with acute respiratory infection; assay type: in vivo, human; conditions: for IFN-α Mean value / IFN-α Median: blood serum
Text: as §1

[8] = system: Echo virus 11; assay: Virus yield reduction assay, Echo virus 11; assay type: cell-based; conditions: HFF, MOI 0.005, 3 days
[9] = system: Influenza A strain Victoria (H3N2); assay: Virus yield reduction assay, Influenza A Victoria (H3N2); assay type: cell-based, Influenza A H3N2 (strain Victoria/3/75); conditions: Table 10, NBL-2 cells, MOI 0.01, 24 h
[10] = system: blood monocytes; assay: Blood monocytes level (complete blood counts) of volunteers; assay type: in vivo, human; conditions: throughout the study; control group decreased by V3 and V4
Text: The results of investigating FAV00A effect of body interferon status correlate with the data collected during statistical processing of volunteers' complete blood counts. […] This fact is indicative of limitation of viral infection immunosuppressive effect on cellular immunity responses in FAV00A treatment group.

[11] = system: Enterovirus 71; assay: Virus yield reduction assay, Enterovirus 71; assay type: cell-based; conditions: HFF, MOI 0.1, 3 days
[12] = system: Echo virus 30; assay: Virus yield reduction assay, Echo virus 30; assay type: cell-based; conditions: HFF, MOI 0.01, 3 days
[13] = system: Influenza A strain California (H3N2); assay type: cell-based; conditions: Table 9, NBL-2 cells, MOI 0.001, 24 h
[14] = system: Human cytomegalovirus AD169; assay: Virus yield reduction assay, Human cytomegalovirus AD169; assay type: cell-based; conditions: HFF, MOI 0.02, 5 days
[15] = system: Influenza A strain New Caledonia (H1N1); assay type: cell-based; conditions: NBL-2 cells, MOI 0.01, 24 h
[16] = 7-th day of the drug intake (Visit V3)
[17] = Visit V3 (7-th day of drug intake)
[18] = Table 8, 400 μg with 45 minutes pre-incubation
[19] = Table 8, 400 μg without pre-incubation

C[n+]1ccc(C(=O)NCc2ccccc2)cc1 [FAV00A, carbabenzpyride]
IFN-γ levels versus the baseline values and Placebo group [1, 16]: Significant elevation | IFN-γ Mean value ([1]; Visit V1 (baseline)): 33.168 | IFN-γ Median ([1]; Visit V1 (baseline)): 33.25 | IFN-γ Mean value [1, 17]: 44.670* | IFN-γ Median [1, 17]: 45.85* | IFN-γ Mean value ([1]; Visit V4): 41.313* | IFN-γ Median ([1]; Visit V4): 40.1* | % titre reduction in comparison to virus control ([2]; FAV00A 125 μg/ml): (88.5%) | Virus titre ([2]; FAV00A 125 μg/ml): 4.0 × 10^4 TCID50/ml | Virus titre ([2]; FAV00A 250 μg/ml): 5.4 × 10^4 TCID50/ml | % titre reduction in comparison to virus control ([2]; FAV00A 500 μg/ml): (95.6%)^1 | Virus titre ([2]; FAV00A 500 μg/ml): 2.0 × 10^3 TCID50/ml | Virus titre ([3]; FAV00A 12.5 μg/ml): 7.2 × 10^7 TCID50/ml | % titre reduction in comparison to virus control ([3]; FAV00A 25 μg/ml): (11.3%) | Virus titre ([3]; FAV00A 25 μg/ml): 5.4 × 10^7 TCID50/ml | % titre reduction in comparison to virus control ([3]; FAV00A 50 μg/ml): (43.5%)^1 | Virus titre ([3]; FAV00A 50 μg/ml): 3.4 × 10^7 TCID50/ml | % titre reduction in comparison to virus control ([4]; FAV00A 12.5 μg/ml): (45.3%) | Virus titre ([4]; FAV00A 12.5 μg/ml): 1.7 × 10^4 TCID50/ml | % titre reduction in comparison to virus control ([4]; FAV00A 25 μg/ml): (45.7%) | Virus titre ([4]; FAV00A 25 μg/ml): 1.7 × 10^5 TCID50/ml | % titre reduction in comparison to virus control ([4]; FAV00A 50 μg/ml): (65.3%)^1 | Virus titre ([4]; FAV00A 50 μg/ml): 1.1 × 10^5 TCID50/ml | % titre reduction in comparison to virus control ([5]; FAV00A 125 μg/ml): (24.9%) | % titre reduction in comparison to virus control ([5]; FAV00A 250 μg/ml): (86.0%) | Virus titre ([5]; FAV00A 250 μg/ml): 5.2 × 10^3 TCID50/ml | % titre reduction in comparison to virus control ([5]; FAV00A 500 μg/ml): (93.5%)^1 | Virus titre ([5]; FAV00A 500 μg/ml): 2.4 × 10^3 TCID50/ml | Virus titre ([6]; FAV00A 12.5 μg/ml): 7.0 × 10^8 TCID50/ml | % titre reduction in comparison to virus control ([6]; FAV00A 25 μg/ml): (43.7%) | Virus titre ([6]; FAV00A 25 μg/ml): 3.0 × 10^8 TCID50/ml | % titre reduction in comparison to virus control ([6]; FAV00A 50 μg/ml): (68.4%)^1 | Virus titre ([6]; FAV00A 50 μg/ml): 1.7 × 10^8 TCID50/ml | IFN-α levels versus the baseline values and Placebo group [7, 16]: Significant elevation | IFN-α Mean value ([7]; Visit V1 (baseline)): 22.290 | IFN-α Median ([7]; Visit V1 (baseline)): 23.7 | IFN-α Mean value [7, 17]: 37.563* | IFN-α Median [7, 17]: 37.4* | IFN-α Mean value ([7]; Visit V4): 30.072* | IFN-α Median ([7]; Visit V4): 30.55* | % titre reduction in comparison to virus control ([8]; FAV00A 62.5 μg/ml): (41.8%) | Virus titre ([8]; FAV00A 62.5 μg/ml): 1.8 × 10^8 TCID50/ml | % titre reduction in comparison to virus control ([8]; FAV00A 125 μg/ml): (36.4%) | Virus titre ([8]; FAV00A 125 μg/ml): 1.9 × 10^8 TCID50/ml | % titre reduction in comparison to virus control ([8]; FAV00A 250 μg/ml): (79.9%)^1 | Virus titre ([8]; FAV00A 250 μg/ml): 6.1 × 10^7 TCID50/ml | % virus yield relative to control ([9]; 400 μg): 41% | Fold reduction ([9]; 400 μg): 2.44 | Titer (TCID50/ml) ([9]; 400 μg): 1.20 * 10^6 TCID50/ml | % virus yield relative to control ([9]; 800 μg): 27% | Fold reduction ([9]; 800 μg): 3.70 | Titer (TCID50/ml) ([9]; 800 μg): 7.75 * 10^5 TCID50/ml | Change of blood monocytes level [10]: No considerable decrease | Virus titre ([11]; FAV00A 50 μg/ml): 5.4 × 10^3 TCID50/ml | % titre reduction in comparison to virus control ([11]; FAV00A 100 μg/ml): (83.6%) | Virus titre ([11]; FAV00A 100 μg/ml): 6.5 × 10^2 TCID50/ml | % titre reduction in comparison to virus control ([11]; FAV00A 200 μg/ml): (97.6%)^1 | Virus titre ([11]; FAV00A 200 μg/ml): 9.6 × 10^1 TCID50/ml | Virus titre ([12]; FAV00A 25 μg/ml): 1.2 × 10^8 TCID50/ml | % titre reduction in comparison to virus control ([12]; FAV00A 50 μg/ml): (17.0%) | Virus titre ([12]; FAV00A 50 μg/ml): 7.9 × 10^7 TCID50/ml | % titre reduction in comparison to virus control ([12]; FAV00A 100 μg/ml): (68.3%)^1 | Virus titre ([12]; FAV00A 100 μg/ml): 3.0 × 10^7 TCID50/ml | % virus yield relative to control ([13]; 400 μg): 76% | Fold reduction ([13]; 400 μg): 1.32 | Titer (TCFD50/ml) ([13]; 400 μg): 2.25 * 10^4 TCFD50/ml | % virus yield relative to control ([13]; 800 μg): 61% | Fold reduction ([13]; 800 μg): 1.64 | Titer (TCFD50/ml) ([13]; 800 μg): 1.80 * 10^4 TCFD50/ml | Virus titre ([14]; FAV00A 125 μg/ml): 2.2 × 10^5 TCID50/ml | Virus titre ([14]; FAV00A 250 μg/ml): 1.0 × 10^5 TCID50/ml | % titre reduction in comparison to virus control ([14]; FAV00A 500 μg/ml): (41.1%)^1 | Virus titre ([14]; FAV00A 500 μg/ml): 5.3 × 10^4 TCID50/ml | % virus yield relative to control [15, 18]: 52% | Fold reduction [15, 18]: 1.92 | Titer (TCID50/ml) [15, 18]: 1.10 * 10^6 TCID50/ml | % virus yield relative to control [15, 19]: 31% | Fold reduction [15, 19]: 3.23 | Titer (TCID50/ml) [15, 19]: 6.56 * 10^5 TCID50/ml | % virus yield relative to control ([15]; Table 11a, 400 μg): 32% | Fold reduction ([15]; Table 11a, 400 μg): 3.13 | Titer (TCID50/ml) ([15]; Table 11a, 400 μg): 6.81 * 10^3 TCID50/ml | % virus yield relative to control ([15]; Table 12b, 800 μg): 28% | Fold reduction ([15]; Table 12b, 800 μg): 3.57 | Titer (TCID50/ml) ([15]; Table 12b, 800 μg): 2.70 * 10^6 TCID50/ml

CC(=O)N[C@H]1[C@H]([C@H](O)[C@H](O)CO)OC(C(=O)O)=C[C@@H]1N=C(N)N [Zanamivir, reference compound]
% virus yield relative to control ([9]; 100 ng): 0.02% | Fold reduction ([9]; 100 ng): 5000 | Titer (TCID50/ml) ([9]; 100 ng): 7.05 * 10^2 TCID50/ml | % virus yield relative to control ([13]; 100 ng): 0.4% | Fold reduction ([13]; 100 ng): 250 | Titer (TCFD50/ml) ([13]; 100 ng): 1.18 * 10^2 TCFD50/ml | % virus yield relative to control ([15]; Table 8, 10 ng): 23% | Fold reduction ([15]; Table 8, 10 ng): 4.35 | Titer (TCID50/ml) ([15]; Table 8, 10 ng): 4.85 * 10^5 TCID50/ml | % virus yield relative to control ([15]; Table 11a, 100 ng): 3% | Fold reduction ([15]; Table 11a, 100 ng): 33.33 | Titer (TCID50/ml) ([15]; Table 11a, 100 ng): 7.00 * 10^4 TCID50/ml | % virus yield relative to control ([15]; Table 12b, 100 ng): 15% | Fold reduction ([15]; Table 12b, 100 ng): 6.67 | Titer (TCID50/ml) ([15]; Table 12b, 100 ng): 1.42 * 10^6 TCID50/ml

From patent US8404857B2, “α-crystalline form of carbabenzpyride” (Farmak International Holding GmbH, priority 2010, dated 2013)
